Experimental data taken from patent US12110299B2, “Thiazole derivatives and pharmaceutically acceptable salts thereof” (YUNGJIN PHARM. CO., LTD., priority 2018, dated 2024).

Legend:
MDA-MB-468 cells [1] = test: Anti-proliferative effect on MDA-MB-468 cells, inhibition rate at 100 nM (tetrazolium salt method); assay type: cell-based; conditions: Homo sapiens, 72 hours
Experimental: Representative compounds of the present invention were tested at different concentrations (from 1000 nM to 25 nM) to assess their ability to inhibit the proliferation of MDA-MB-468 cells. Cells were grown in RPMI 1640 (Welgene)+10% FBS (Gibco)+1% penicillin/streptomycin (Gibco) and cultured at 37° C. in a humidified chamber in the presence of 5% CO2.
MDA-MB-468 cells cultured in 96-well cell culture plates were treated with representative compounds of the present invention and cultured for 72 hours.

[2] = molecular target: recombinant purified human CDK7 kinase (Homo sapiens (Human), UniProt P50613); test: CDK7 kinase-inhibitory activity, ADP-Glo kinase assay; assay type: biochemical; conditions: ATP 90 µM, MBP substrate, 2 hours at 30° C., read-out: CDK7 inhibition(IC50 nM)
Chain of recombinant purified human CDK7 kinase (P50613 whole entry): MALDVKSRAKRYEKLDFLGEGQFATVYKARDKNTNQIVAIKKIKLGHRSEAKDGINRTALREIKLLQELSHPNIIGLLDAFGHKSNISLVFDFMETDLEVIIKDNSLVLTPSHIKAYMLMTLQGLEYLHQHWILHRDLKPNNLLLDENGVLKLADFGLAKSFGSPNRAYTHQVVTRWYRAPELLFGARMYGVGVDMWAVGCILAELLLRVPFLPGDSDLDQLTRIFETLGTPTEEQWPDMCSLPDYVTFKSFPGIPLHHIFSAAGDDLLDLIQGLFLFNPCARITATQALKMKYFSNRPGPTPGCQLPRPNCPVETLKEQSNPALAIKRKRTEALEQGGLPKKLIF
Chain of recombinant purified human CDK7 kinase (P51946 whole entry partner): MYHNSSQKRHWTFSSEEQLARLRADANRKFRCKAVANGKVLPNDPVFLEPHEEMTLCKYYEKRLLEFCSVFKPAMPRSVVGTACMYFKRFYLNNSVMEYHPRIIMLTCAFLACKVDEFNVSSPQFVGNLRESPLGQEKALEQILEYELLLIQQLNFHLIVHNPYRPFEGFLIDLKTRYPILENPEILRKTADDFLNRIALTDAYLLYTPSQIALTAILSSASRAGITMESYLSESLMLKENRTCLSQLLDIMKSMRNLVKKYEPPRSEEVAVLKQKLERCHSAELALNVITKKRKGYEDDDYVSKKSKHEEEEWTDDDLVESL
Chain of recombinant purified human CDK7 kinase (P51948 whole entry partner): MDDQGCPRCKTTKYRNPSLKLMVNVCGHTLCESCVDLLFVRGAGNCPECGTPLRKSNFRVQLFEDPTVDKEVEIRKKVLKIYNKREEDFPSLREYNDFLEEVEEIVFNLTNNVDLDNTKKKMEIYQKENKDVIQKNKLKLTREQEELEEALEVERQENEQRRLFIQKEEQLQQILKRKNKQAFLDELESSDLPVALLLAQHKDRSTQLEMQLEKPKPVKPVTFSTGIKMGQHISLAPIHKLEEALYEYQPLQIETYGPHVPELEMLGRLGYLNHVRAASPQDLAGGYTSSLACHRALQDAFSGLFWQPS
Experimental: Representative compounds of the present invention were assayed in vitro for CDK7 kinase-inhibitory activities using ADP-Glo platform. In detail, CDK7 kinase-inhibitory activity was measured using recombinant purified human CDK7 kinase (ThermoFisher, PV3868) and ADP Glo kinase assays kit (Promega, V9102). CDK7 kinase was diluted with 1× kinase reaction buffer (40 mM Tris-C1, pH 7.5, 20 mM MgCl2, 0.1 mg/ml BSA and 50 [M DTT) and added to 96 well plates (final concentration of CDK7 per reaction: 50 ng). The compound was finally treated to be a 1% DMSO aqueous solution, and a substrate cocktail containing ATP (final concentration of 90 [M) and 0.2 μg/μl of MBP (Myelin basic protein) in a total of 25 μl of reaction mass was added to 96 well plates, thereby initiating an enzymatic reaction. After 2 hours of incubation (30° C.), equivalent volume (25 μl per reaction) of ADP Glo was added and incubated (30° C.) at room temperature for 60 minutes. The kinase detection reagent (50 μl per reaction) was then added and incubated (30° C.) at room temperature for 30 minutes. The kinase activity was measured by chemiluminescence method according to ADP Glo Kanease Assay Kit instruction manual, and the CDK7-inhibitory activity of the compounds according to the present invention was calculated. The result analysis of each compound was performed using Microsoft Excel, and IC50 values were calculated by Prism software.

MDA-MB-468 cells [3] = test: Anti-proliferative effect on MDA-MB-468 cells, IC50 (MTT); assay type: cell-based; conditions: Homo sapiens, MDA-MB-468, 72 h
Experimental: The compounds of the present invention were tested at different concentrations (from 1000 nM to 1 nM) to assess their ability for inhibiting the proliferation of MDAMB-468 cells. Cells were cultivated in RPMI 1640 (Welgene)+10% FBS (Gibco)+1% penicillin/streptomycin (Gibco) and cultured at 37° C. in a humidified chamber in the presence of 5% C02.
MDA-MB-468 cells cultured in 96-well cell culture plates were treated with the compounds of the present invention and incubated for 72 hours.

HepG2 cells = test: HepG2 cell viability assay (CCK-8); assay type: cell-based, human; conditions: Homo sapiens, HepG2, 72 h
Experimental: The ability to inhibit the proliferation of HepG2 cells, which are human hepatocellular carcinoma cells, was measured through the in vitro cell viability assay. Cells were cultured at 37° C. in a humidified condition in the presence of 5% CO2 using a culture medium of MEM (Welgene)+10% FBS (Gibco)+1% penicillin/streptomycin (Gibco). […] Cell viability was measured by CCK-8 method using tetrazolium salt, and the ability of the compounds according to the present invention to inhibit cancer cell proliferation was calculated.

| IC50 [2] | IC50 (MDA-MB-468 cells [3]) | IC50 (HepG2 cells) | SMILES | inhibition at 0.1 µM (MDA-MB-468 cells [1]) |
| --- | --- | --- | --- | --- |
| – | – | – | C=CC(=O)Nc1ccc(-c2cccc([C@H](C)C(=O)Nc3ncc(C(F)(F)F)s3)c2)cn1 [Example 38, (S)-N-(5-(3-(1-oxo-1-((5-(trifluoromethyl)thiazol-2-yl)amino)propan-2-yl)phenyl)pyridin-2-yl)acrylamide] | 64% |
| – | – | – | C=CC(=O)Nc1ccc(-c2cccc([C@H](C)C(=O)Nc3ncc(C(F)(F)F)s3)c2)nn1 [Example 39, (S)-N-(6-(3-(1-oxo-1-((5-(trifluoromethyl)thiazol-2-yl)amino)propan-2-yl)phenyl)pyridazin-3-yl)acrylamide] | 67% |
| – | – | – | C=CC(=O)Nc1cnc(-c2cncc(C(C)C(=O)Nc3ncc(Cl)s3)c2)cn1 (stereo not drawn) [Example 61, N-(5-(5-(1-((5-chlorothiazol-2-yl)amino)-1-oxopropan-2-yl)pyridin-3-yl)pyrazine-2-yl)acrylamide] | 73% |
| – | – | – | C=CC(=O)Nc1cnc(-c2cccc([C@H](C)C(=O)Nc3ncc(C4CC4)s3)c2)cn1 [Example 22] | 72% |
| – | – | – | C=CC(=O)Nc1ccc(-c2cccc(C(C)C(=O)Nc3ncc(CC)s3)c2)cn1 (stereo not drawn) [Example 4, N-(5-(3-(1-((5-ethylthiazol-2-yl)amino)-1-oxopropan-2-yl)phenyl)pyridin-2-yl)acrylamide] | 56% |
| – | – | – | C=CC(=O)Nc1cnc(-c2cccc([C@H](C)C(=O)Nc3ncc(C(C)C)s3)c2)cn1 [Example 36, (S)-N-(5-(3-(1-((5-isopropylthiazol-2-yl)amino)-1-oxopropan-2-yl)phenyl)pyrazin-2-yl)acrylamide] | 64% |
| – | – | – | C=CC(=O)Nc1ccc(-c2cncc(C(C)C(=O)Nc3ncc(C(F)(F)F)s3)c2)nn1 (stereo not drawn) [Example 49, N-(6-(5-(1-oxo-1-((5-(trifluoromethyl)thiazol-2-yl)amino)propan-2-yl)pyridin-3-yl)pyridazin-3-yl)acrylamide] | 67% |
| – | – | – | C=CC(=O)Nc1ncc(-c2cccc([C@H](C)C(=O)Nc3ncc(C#N)s3)c2)cc1F [Example 33, (S)-N-(5-(3-(1-((5-cyanothiazol-2-yl)amino)-1-oxopropan-2-yl)phenyl)-3-fluoropyridin-2-yl)acrylamide] | 59% |
| – | – | – | C=CC(=O)Nc1ccc(-c2csc(C(C)C(=O)Nc3ncc(C(F)(F)F)s3)c2)cn1 (stereo not drawn) [Example 53, N-(5-(5-(1-oxo-1-((5-(trifluoromethyl)thiazol-2-yl)amino)propan-2-yl)thiophen-3-yl)pyridin-2-yl)acrylamide] | 51% |
| – | – | – | C=CC(=O)Nc1ncc(-c2cccc([C@H](C)C(=O)Nc3ncc(C4CC4)s3)c2)cn1 [Example 27] | 74% |
| 71 nM | – | – | C[C@H](C(=O)Nc1ncc(N(C)C)s1)c1cccc(-c2cnc(NC(=O)/C=C/CN(C)C)cn2)c1 [Example 106, (S,E)-4-(dimethylamino)-N-(5-(3-(1-((5-(dimethylamino)thiazol-2-yl)amino)-1-oxopropan-2-yl)phenyl)pyrazin-2-yl)but-2-enamide] | – |
| – | 104 nM | 15 nM | C=CC(=O)Nc1ccc(-c2cccc(C(C)C(=O)Nc3ncc(C4CC4)s3)c2)cn1 (stereo not drawn) [Example 2, N-(5-(3-(1-((5-cyclopropylthiazol-2-yl)amino)-1-oxopropan-2-yl)phenyl)pyridin-2-yl)acrylamide] | 50% |
| – | – | – | C=CC(=O)Nc1cnc(-c2cncc(C(C)C(=O)Nc3ncc(C(C)C)s3)c2)cn1 (stereo not drawn) [Example 47, N-(5-(5-(1-((5-isopropylthiazol-2-yl)amino)-1-oxopropan-2-yl)pyridin-3-yl)pyrazin-2-yl) acrylamide] | 72% |
| – | – | – | C=CC(=O)Nc1cnc(-c2cccc([C@H](C)C(=O)Nc3ncc(C#N)s3)c2)cn1 [Example 25, (S)-N-(5-(3-(1-((5-cyanothiazol-2-yl)amino)-1-oxopropan-2-yl)phenyl)pyrazin-2-yl)acrylamide] | 71% |
| – | – | – | C=CC(=O)Nc1ccc(-c2cccc([C@H](C)C(=O)Nc3ncc(C(C)C)s3)c2)nn1 [Example 40, (S)-N-(6-(3-(1-((5-isopropylthiazol-2-yl)amino)-1-oxopropan-2-yl)phenyl)pyridazin-3-yl)acrylamide] | 64% |
| – | – | – | C=CC(=O)Nc1ccc(-c2ccc(F)c(C(C)C(=O)Nc3ncc(C#N)s3)c2)nn1 (stereo not drawn) [Example 11, N-(6-(3-(1-((5-cyanothiazol-2-yl)amino)-1-oxopropane-2-yl)-4-fluorophenyl)pyridazin-3-yl)acrylamide] | 53% |

| IC50 [2] | IC50 (MDA-MB-468 cells [3]) | IC50 (HepG2 cells) | SMILES | inhibition at 0.1 µM (MDA-MB-468 cells [1]) |
| --- | --- | --- | --- | --- |
| – | 86 nM | 22 nM | CC(C(=O)Nc1ncc(C2CC2)s1)c1cccc(-c2ccc(NC(=O)/C=C/CN(C)C)nc2)c1 (stereo not drawn) [Example 6, (E)-N-(5-(3-(1-((5-cyclopropylthiazol-2-yl)amino)-1-oxopropan-2-yl)phenyl)pyridin-2-yl)-4-(dimethylamino)but-2-enamide] | 66% |
| – | – | – | C=CC(=O)Nc1ccc(-c2cc(C(C)C(=O)Nc3ncc(C4CC4)s3)ccn2)cn1 (stereo not drawn) [Example 50, N-(4-(1-((5-cyclopropylthiazol-2-yl)amino)-1-oxopropan-2-yl)-[2,3′-bipyridine]-6′-yl)acrylamide] | 66% |
| – | – | – | C=CC(=O)Nc1cncc(-c2cccc([C@H](C)C(=O)Nc3ncc(C4CC4)s3)c2)n1 [Example 16] | 53% |
| – | 63 nM | 5 nM | C=CC(=O)Nc1ccc(-c2cccc([C@H](C)C(=O)Nc3ncc(C4CC4)s3)c2)cn1 [Example 14] | 74% |
| – | 26 nM | – | CCc1cnc(NC(=O)[C@@H](C)c2cccc(-c3ccc(NC(=O)/C=C/CN(C)C)nc3)c2)s1 [Example 17, (S,E)-4-(dimethylamino)-N-(5-(3-(1-((5-ethylthiazol-2-yl)amino)-1-oxopropan-2-yl)phenyl)pyridin-2-yl)but-2-enamide] | 70% |
| – | 46 nM | – | C[C@H](C(=O)Nc1ncc(C2CC2)s1)c1cccc(-c2ccc(NC(=O)/C=C/CN(C)C)nc2)c1 [Example 15] | 73% |
| – | 32 nM | 4 nM | C[C@H](C(=O)Nc1ncc(C(F)(F)F)s1)c1cccc(-c2cnc(NC(=O)/C=C/CN(C)C)c(C(F)(F)F)c2)c1 [Example 111, (S,E)-4-(dimethylamino)-N-(5-(3-(1-oxo-1-((5-(trifluoromethyl)thiazol-2-yl)amino)propan-2-yl)phenyl)-3-(trifluoromethyl)pyridin-2-yl)but-2-enamide] | – |
| – | 54 nM | 9 nM | C=CC(=O)Nc1ncc(-c2cncc(C(C)C(=O)Nc3ncc(C(F)(F)F)s3)c2)cc1C#N (stereo not drawn) [Example 88, N-(5-cyano-5′-(1-oxo-1-((5-(trifluoromethyl)thiazol-2-yl)amino)propan-2-yl)-[3,3′-bipyridin]-6-yl)acrylamide] | – |
| – | – | – | C=CC(=O)Nc1ncc(-c2cccc([C@H](C)C(=O)Nc3ncc(C4CC4)s3)c2)cc1F [Example 29] | 75% |
| – | 100 nM | 52 nM | CCc1cnc(NC(=O)C(CC)c2cccc(-c3cnc(NC(=O)/C=C/CN(C)C)c(C#N)c3)c2)s1 (stereo not drawn) [Example 138, (E)-N-(3-cyano-5-(3-(1-((5-ethylthiazol-2-yl)amino)-1-oxobutan-2-yl)phenyl)pyridin-2-yl)-4-(dimethylamino)but-2-enamide] | – |
| – | – | – | C=CC(=O)Nc1ccc(-c2cccc(C(C)C(=O)Nc3ncc(C)s3)c2)cn1 (stereo not drawn) [Example 1, N-(5-(3-(1-((5-methylthiazol-2-yl)amino)-1-oxopropan-2-yl)phenyl)pyridin-2-yl)acrylamide] | 54% |
| – | – | – | C=CC(=O)Nc1ccc(-c2cccc([C@H](C)C(=O)Nc3ncc(C4CC4)s3)c2)nn1 [Example 28] | 74% |
| – | 44 nM | 8 nM | C[C@H](C(=O)Nc1ncc(C2CCC2)s1)c1cccc(-c2cnc(NC(=O)/C=C/CN(C)C)cn2)c1 [Example 104, (S,E)-N-(5-(3-(1-((5-cyclobutylthiazol-2-yl)amino)-1-oxopropan-2-yl)phenyl)pyrazin-2-yl)-4-(dimethylamino)but-2-enamide] | – |
| – | 34 nM | 38 nM | CCc1cnc(NC(=O)[C@@H](C)c2cccc(-c3cnc4c(c3)CCN4C(=O)/C=C/CN(C)C)c2)s1 [Example 122, (S,E)-2-(3-(1-(4-(dimethylamino)but-2-enoyl)-2,3-dihydro-1H-pyrrolo[2,3-b]pyridin-5-yl)phenyl)-N-(5-ethylthiazol-2-yl)propanamide] | – |
| – | 38 nM | 21 nM | C[C@H](C(=O)Nc1ncc(Cl)s1)c1cccc(-c2cnc(NC(=O)/C=C/CN(C)C)cn2)c1 [Example 93, (S,E)-N-(5-(3-(1-((5-chlorothiazol-2-yl)amino)-1-oxopropan-2-yl)phenyl)pyrazin-2-yl)-4-(dimethylamino)but-2-enamide] | – |
